The target in this assay is T1, human adenosine A2B receptor (Homo sapiens, UniProt P29275).
T1 construct: expressed in transfected cells; host or cells: CHO.K1
T1 sequence (P29275 1-332): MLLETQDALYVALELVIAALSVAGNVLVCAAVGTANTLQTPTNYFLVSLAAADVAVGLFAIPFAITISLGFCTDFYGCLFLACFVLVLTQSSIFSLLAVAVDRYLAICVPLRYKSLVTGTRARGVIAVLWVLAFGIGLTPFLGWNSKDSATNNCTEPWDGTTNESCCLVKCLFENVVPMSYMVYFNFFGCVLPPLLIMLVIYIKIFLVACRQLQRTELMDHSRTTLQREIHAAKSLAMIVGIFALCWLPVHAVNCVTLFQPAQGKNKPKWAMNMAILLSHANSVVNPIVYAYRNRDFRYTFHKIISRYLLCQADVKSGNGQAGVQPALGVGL
Nature of the assay: Inhibitory activity on NECA-induced cyclic AMP production in CHO.K1 cells expressing human adenosine A2B receptor. In kind it is cell-based. The following applies: 100 nM NECA, cAMP (HitHunter kit), 30-45 min incubation. Here is the method: Cells were cultured under 5%CO2/95% […] atmosphere at 37° C. in DMEM and D-MEM/F-12 (1:1 mixture) medium (Invitrogen, Grand Island, N.Y.) with 10% fetal calf serum (Invitrogen, Grand Island, N.Y.), 100 U/mL penicillin (Invitrogen, Grand Island, N.Y.), 100 U/mL streptomycin (Invitrogen, Grand Island, N.Y.), 1 mg/mL G418 (Invitrogen, Grand Island N.Y.) and 0.2 mg/mL Hygromycin B (Invitrogen, Carlsbad, Calif.). Experimental cultures were grown overnight as a monolayer in 384-well tissue culture plates (0.06 ml/well-7500 cells/well). Each well was washed once with 0.1 mL of Krebs buffer. To each well was added 50 uL of Krebs buffer containing 100 uM of the phosphodiesterase inhibitor 4-(3-butoxy-4-methoxybenzyl)-2-imidazolidinone, 100 nM NECA (Sigma-Aldrich, St. Louis, Mo.), 0.02% BSA Fraction V (Roche Biochemicals), the test compound (appropriate concentration). The final concentration of DMSO was 1.1%. After incubation for 30-45 min, the wells were emptied and blotted on paper towel to remove residual solution. The HitHunter™ cAMP Assay Kit from DiscoverX for adherent cells (Fremont, Calif.) was used for lysing the cells and measuring cAMP concentrations.

In general, IC50 refers to the concentration needed to halve the response being measured. A high value points to a need for much substance.

In the case of `COc1ncnc2sc(NC(=O)N3CCC(N4CCCC4c4ccccc4)CC3)nc12` (centres unmarked) [Example 62, 4-(2-Phenyl-pyrrolidin-1-yl)-piperidine-1-carboxylic acid (7-methoxy-thiazolo[5,4-d]pyrimidin-2-yl)-amide], the 50% inhibitory concentration (IC50) turned out to be 218 nM. This counts as sub-micromolar.

`COC(=O)c1ccccc1S(=O)(=O)C1CCN(C(=O)Nc2nc3c(OC)ncnc3s2)CC1` [Example 76, 2-[1-(7-Methoxy-thiazolo[5,4-d]pyrimidin-2-ylcarbamoyl)-piperidine-4-sulfonyl]-benzoic acid methyl ester] had an IC50 of 73 nM. This IC50 lies about 3-fold lower than the previous one.

`COc1ncnc2sc(NC(=O)N3CCN(Cc4cccc(OCCO)c4)CC3)nc12` [Example 16, 4-[3-(2-Hydroxy-ethoxy)-benzyl]-piperazine-1-carboxylic acid (7-methoxy-thiazolo[5,4-d]pyrimidin-2-yl)-amide]: the IC50 was found to be 197 nM.

In the case of `COc1ncnc2sc(NC(=O)N3CCC(n4c(=O)[nH]c5ccccc54)CC3)nc12` [Example 57, 4-(2-Oxo-2,3-dihydro-benzoimidazol-1-yl)-piperidine-1-carboxylic acid (7-methoxy-thiazolo[5,4-d]pyrimidin-2-yl)-amide], the half-maximal inhibitory concentration (IC50) is 52 nM.

`CCOC(=O)C1(Cc2ccc(OC(F)(F)F)cc2)CCCN(C(=O)Nc2nc3c(OC)ncnc3s2)C1` (centres unmarked) [Example 54, 1-(7-Methoxy-thiazolo[5,4-d]pyrimidin-2-ylcarbamoyl)-3-(4-trifluoromethoxy-benzyl)-piperidine-3-carboxylic acid ethyl ester] displayed an IC50 of 1460 nM. This IC50 is about 28-fold higher than that of the compound before.

The compound `COc1ncnc2sc(NC(=O)N3CC=C(c4cccc(C(F)(F)F)c4)CC3)nc12` [Example 67, 4-(3-Trifluoromethyl-phenyl)-3,6-dihydro-2H-pyridine-1-carboxylic acid (7-methoxy-thiazolo[5,4-d]pyrimidin-2-yl)-amide] registered a concentration for half-maximal inhibition (IC50) of 51 nM.

`COc1ncnc2sc(NC(=O)N3CCN(Cc4cccc(C(F)(F)F)c4)CC3)nc12` [Example 1, 4-(3-trifluoromethyl-benzyl)-piperazine-1-carboxylic acid (7-methoxy-thiazolo[5,4-d]pyrimidin-2-yl)-amide]: the half-maximal inhibitory concentration (IC50) stood at 5 nM.

Compound `COc1ncnc2sc(NC(=O)N3CCN(Cc4cccc(C(=O)O)c4O)CC3)nc12` [Example 27, 2-Hydroxy-3-[4-(7-methoxy-thiazolo[5,4-d]pyrimidin-2-ylcarbamoyl)-piperazin-1-ylmethyl]-benzoic acid] returned an IC50 of 1560 nM.

Turning to `COc1ncnc2sc(NC(=O)N3CCC(NCc4ccc(F)c(C(F)(F)F)c4)C3)nc12` (stereo in doubt) [Example 87, (R)-3-(4-Fluoro-3-trifluoromethyl-benzylamino)-pyrrolidine-1-carboxylic acid (7-methoxy-thiazolo[5,4-d]pyrimidin-2-yl)-amide], half-maximal inhibition (IC50) required 2 nM. Compared with the last compound, the IC50 is about 780-fold lower.

In the case of `COc1ncnc2sc(NC(=O)N3CC[C@H](NC(=O)c4ccc(F)c(C(F)(F)F)c4)C3)nc12` [Example 89, (S)-3-(4-fluoro-3-trifluoromethyl-benzoylamino)-pyrrolidine-1-carboxylic acid (7-methoxy-thiazolo[5,4-d]pyrimidin-2-yl)-amide], the 50% inhibitory concentration (IC50) is 4 nM. Compared with the last compound, the IC50 is about 2-fold higher.

The compound `COC(=O)c1cccc(CN2CCN(C(=O)Nc3nc4c(OC)ncnc4s3)CC2)c1` [Example 10, 3-[4-(7-Methoxy-thiazolo[5,4-d]pyrimidin-2-ylcarbamoyl)-piperazin-1-ylmethyl]-benzoic acid methyl ester] displayed a half-maximal inhibitory concentration (IC50) of 30 nM.

Compound `COc1ncnc2sc(NC(=O)N3CCC4(CC3)CN(S(C)(=O)=O)c3ccc(Cl)cc34)nc12` [Example 48, 5-Chloro-1,2-dihydro-N-(7-methoxythiazole[5,4-d]pyrimidin-2-yl)-1-(methylsulfonyl)spiro[3H-indole-3,4′-piperidine]-1′-carboxamide] registered an IC50 of 9 nM.

Consider `COc1ncnc2sc(NC(=O)N3CCC4(CC3)C(=O)NC[C@H]4c3ccc(F)cc3)nc12` [Example 31, 4-(4-Fluoro-phenyl)-1-oxo-2,8-diazaspiro[4,5]decane-8-carboxylic acid(7-methoxy-thiazolo[5,4-d]pyrimidin-2-yl)-amide], for which 9 nM corresponded to half-maximal inhibition (IC50).

As to `COc1ncnc2sc(NC(=O)N3CCc4cc(C(F)(F)F)ccc4C3)nc12` [Example 95, 6-Trifluoromethyl-3,4-dihydro-1H-isoquinoline-2-carboxylic acid (7-methoxy-thiazolo[5,4-d]pyrimidin-2-yl)-amide], half-maximal inhibition (IC50) was put at 115 nM.

The values above are taken from patent US7947692B2, “Substituted thiazolo[5,4-d]pyrimidine urea derivatives” (Hoffmann-La Roche Inc., priority 2006, dated 2011).
